This experiment deals with Protein Kinase C beta 2 (PKCβII) (Homo sapiens (Human), UniProt P05771). Briefly: PKCβII coupled spectrophotometric kinase assay (PK/LDH, NADH absorbance at 340 nm). It is filed as biochemical. Conditions: apparent Ki, ATP competitive inhibition model (Morrison equation); 0.1 mM ATP, 5 nM PKC, 30° C.; read-out: Ki app. Put shortly: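 PK/LDH-coupled ADP detection (NADH loss at 340 nm), 20 min at 30° C, pH 7.4; 5 nM PKCβII, 0.15 mM pseudosubstrate peptide, 0.1 mM ATP, with CaCl2, PS and PMA activators, 7.5% DMSO. Apparent Ki from initial velocities fitted to ATP-competitive Morrison model over 10,000–0.169 nM inhibitor.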
Protein Kinase C beta 2 (PKCβII), sequence (P05771 other isoform, or with tags, fused parts or gaps): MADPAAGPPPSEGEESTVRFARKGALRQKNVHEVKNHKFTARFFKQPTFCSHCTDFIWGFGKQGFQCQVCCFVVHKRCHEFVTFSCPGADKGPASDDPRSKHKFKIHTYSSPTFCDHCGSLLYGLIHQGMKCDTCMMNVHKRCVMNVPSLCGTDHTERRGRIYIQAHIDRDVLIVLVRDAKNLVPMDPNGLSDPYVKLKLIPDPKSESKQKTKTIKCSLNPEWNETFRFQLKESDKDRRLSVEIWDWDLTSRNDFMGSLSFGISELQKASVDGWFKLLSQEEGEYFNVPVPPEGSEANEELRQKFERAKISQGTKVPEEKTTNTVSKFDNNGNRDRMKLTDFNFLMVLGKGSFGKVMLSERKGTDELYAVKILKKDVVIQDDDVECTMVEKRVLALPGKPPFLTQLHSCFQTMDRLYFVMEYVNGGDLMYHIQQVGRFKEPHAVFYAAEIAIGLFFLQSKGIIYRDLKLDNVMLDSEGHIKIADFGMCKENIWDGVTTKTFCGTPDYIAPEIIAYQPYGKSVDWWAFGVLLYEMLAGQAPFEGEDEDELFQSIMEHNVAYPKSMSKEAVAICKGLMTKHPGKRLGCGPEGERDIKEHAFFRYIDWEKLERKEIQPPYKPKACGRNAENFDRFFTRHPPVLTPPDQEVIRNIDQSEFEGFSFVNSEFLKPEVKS

Consider `CCCc1ncc(F)c(Nc2n[nH]c3c2CN(C(=O)N2CC(C)(C)N(C)C[C@@H]2C)C3(C)C)n1` [Example I1, N-(5-fluoro-2-propylpyrimidin-4-yl)-6,6-dimethyl-5-{[(2S)-2,4,5,5-tetramethylpiperazin-1-yl]carbonyl}-1,4,5,6-tetrahydropyrrolo[3,4-c]pyrazol-3-amine], for which the Ki was 1.73 nM.

Take `CCOc1ncc(F)c(Nc2n[nH]c3c2CN(C(=O)N2C[C@@H](C)N(CCCOC)C[C@@H]2C)C3(C)C)n1` [Example K5]: the Ki came to 0.683 nM.

For the molecule `CCOc1ncc(F)c(Nc2n[nH]c3c2CN(C(=O)N2C[C@@H](C)N(CCC(F)(F)F)C[C@@H]2C)C3(C)C)n1` [Example K18, 5-{[(2S,5R)-2,5-dimethyl-4-(3,3,3-trifluoropropyl)piperazin-1-yl]carbonyl}-N-(2-ethoxy-5-fluoropyrimidin-4-yl)-6,6-dimethyl-1,4,5,6-tetrahydropyrrolo[3,4-c]pyrazol-3-amine], the Ki turned out to be 25.3 nM.

In the case of `C[C@H]1CN(C)C(C)(C)CN1C(=O)N1Cc2c(Nc3nc(OCC(F)(F)F)ncc3F)n[nH]c2C1(C)C` [Example K8, N-[5-fluoro-2-(2,2,2-trifluoroethoxy)pyrimidin-4-yl]-6,6-dimethyl-5-{[(2S)-2,4,5,5-tetramethylpiperazin-1-yl]carbonyl}-1,4,5,6-tetrahydropyrrolo[3,4-c]pyrazol-3-amine], the Ki was determined as 0.181 nM.

Consider `COCCOc1ncc(F)c(Nc2n[nH]c3c2CN(C(=O)N2C[C@@H](C)N(C)C[C@@H]2C)C3(C)C)n1` [Example K12, N-[5-fluoro-2-(2-methoxyethoxy)pyrimidin-4-yl]-6,6-dimethyl-5-{[(2S,5R)-2,4,5-trimethylpiperazin-1-yl]carbonyl}-1,4,5,6-tetrahydropyrrolo[3,4-c]pyrazol-3-amine], for which the Ki was found to be 15.2 nM.

Turning to `CNc1ncc(F)c(Nc2n[nH]c3c2CN(C(=O)N2CC(C)(C)N(C)C[C@@H]2C)C3(C)C)n1` [Example A6, N^4-(6,6-dimethyl-5-{[(2S)-2,4,5,5-tetramethylpiperazin-1-yl]carbonyl}-1,4,5,6-, tetrahydropyrrolo[3,4-c]pyrazol-3-yl)-5-fluoro-N^2-methylpyrimidine-2,4-diamine], the Ki is 10.8 nM.

With `Cc1ncc(F)c(Nc2n[nH]c3c2CN(C(=O)N2CC4(CCCC4)N(C)C[C@@H]2C)C3(C)C)n1` [Example A10, 5-{[(8S)-6,8-dimethyl-6,9-diazaspiro[4.5]dec-9-yl]carbonyl}-N-(5-fluoro-2-methylpyrimidin-4-yl)-6,6-dimethyl-1,4,5,6-tetrahydropyrrolo[3,4-c]pyrazol-3-amine], the Ki turned out to be 1.01 nM.

Take `CCOc1ncc(F)c(Nc2n[nH]c3c2CN(C(=O)C2(F)CCN(C)CC2)C3(C)C)n1` [Example L1, N-(2-ethoxy-5-fluoropyrimidin-4-yl)-5-[(4-fluoro-1-methylpiperidin-4-yl)carbonyl]-6,6-dimethyl-1,4,5,6-tetrahydropyrrolo[3,4-c]pyrazol-3-amine]: the Ki was 16.8 nM.

On to `Cc1ncc(F)c(Nc2n[nH]c3c2CN(C(=O)N2C[C@@H]4CCCN4C[C@@H]2C)C3(C)C)n1` [Example H1, N-(5-fluoro-2-methylpyrimidin-4-yl)-6,6-dimethyl-5-{[(3S,8aS)-3-methylhexahydropyrrolo[1,2-a]pyrazin-2(1H)-yl]carbonyl}-1,4,5,6-tetrahydropyrrolo[3,4-c]pyrazol-3-amine], for which the Ki was 39.8 nM.

Turning to `CCc1ncc(F)c(Nc2n[nH]c3c2CN(C(=O)N2CC(C)(C)N(C)C[C@@H]2C)C3(C)C)n1` [Example D1, N-(2-ethyl-5-fluoropyrimidin-4-yl)-6,6-dimethyl-5-{[(2S)-2,4,5,5-tetramethylpiperazin-1-yl]carbonyl}-1,4,5,6-tetrahydropyrrolo[3,4-c]pyrazol-3-amine], the Ki is 5.43 nM.

For the molecule `CN1CCC(F)(C(=O)N2Cc3c(Nc4nc(OCC(F)(F)F)ncc4F)n[nH]c3C2(C)C)CC1` [Example L4, 5-[(4-fluoro-1-methylpiperidin-4-yl)carbonyl]-N-[5-fluoro-2-(2,2,2-trifluoroethoxy)pyrimidin-4-yl]-6,6-dimethyl-1,4,5,6-tetrahydropyrrolo[3,4-c]pyrazol-3-amine], the Ki came to 1.71 nM.

Turning to `COCc1ncc(F)c(Nc2n[nH]c3c2CN(C(=O)N2C[C@@H](C)N(CC4CCOCC4)C[C@@H]2C)C3(C)C)n1` [Example N1, 5-{[(2S,5R)-2,5-dimethyl-4-(tetrahydro-2H-pyran-4-ylmethyl)piperazin-1-yl]carbonyl}-N-[5-fluoro-2-(methoxymethyl)pyrimidin-4-yl]-6,6-dimethyl-1,4,5,6-tetrahydropyrrolo[3,4-c]pyrazol-3-amine], the Ki is under 10 nM.

Take `C[C@@H]1CN(C(=O)N2Cc3c(Nc4nc(OCC(F)(F)F)ncc4F)n[nH]c3C2(C)C)[C@@H](C)CN1C` [Example K7, N-[5-fluoro-2-(2,2,2-trifluoroethoxy)pyrimidin-4-yl]-6,6-dimethyl-5-{[(2S,5R)-2,4,5-trimethylpiperazin-1-yl]carbonyl}-1,4,5,6-tetrahydropyrrolo[3,4-c]pyrazol-3-amine]: the Ki stood at 0.165 nM.

As for `CCOc1ncc(F)c(Nc2n[nH]c3c2CN(C(=O)N2C[C@@H]4CCCN4C[C@@H]2C(C)C)C3(C)C)n1` [Example K20, N-(2-ethoxy-5-fluoropyrimidin-4-yl)-5-{[(3S,8aS)-3-isopropylhexahydropyrrolo[1,2-a]pyrazin-2(1H)-yl]carbonyl}-6,6-dimethyl-1,4,5,6-tetrahydropyrrolo[3,4-c]pyrazol-3-amine], the Ki came out at 26 nM.

As for `COc1ncc(F)c(Nc2n[nH]c3c2CN(C(=O)N2CC(CCO)N(C)C[C@@H]2C)C3(C)C)n1` (single isomer, unassigned) [Example K25], the Ki turned out to be 36.5 nM.

Turning to `CC(C)c1ncc(F)c(Nc2n[nH]c3c2CN(C(=O)N2CC(C)(C)N(C)C[C@@H]2C)C3(C)C)n1` [Example I2, N-(5-fluoro-2-isopropylpyrimidin-4-yl)-6,6-dimethyl-5-{[(2S)-2,4,5,5-tetramethylpiperazin-1-yl]carbonyl}-1,4,5,6-tetrahydropyrrolo[3,4-c]pyrazol-3-amine], the Ki turned out to be 3.67 nM.

On to `CCNc1ncc(F)c(Nc2n[nH]c3c2CN(C(=O)N2C[C@@H](C)N(C4CCOCC4)C[C@@H]2C)C3(C)C)n1` [Example A12, N^4-(5-{[(2S,5R)-2,5-dimethyl-4-(tetrahydro-2H-pyran-4-yl)piperazin-1-yl]carbonyl}-6,6-dimethyl-1,4,5,6-tetrahydropyrrolo[3,4-c]pyrazol-3-yl)-N^2-ethyl-5-fluoropyrimidine-2,4-diamine], for which the Ki was under 10 nM.

In the case of `CCc1ncc(F)c(Nc2n[nH]c3c2CN(C(=O)N2C[C@@H](C)N(CCC(F)(F)F)C[C@@H]2C)C3(C)C)n1` [Example E4, 5-{[(2S,5R)-2,5-dimethyl-4-(3,3,3-trifluoropropyl)piperazin-1-yl]carbonyl}-N-(2-ethyl-5-fluoropyrimidin-4-yl)-6,6-dimethyl-1,4,5,6-tetrahydropyrrolo[3,4-c]pyrazol-3-amine], the Ki is 31.5 nM.

In the case of `C[C@H]1CN(C)C(C)(C)CN1C(=O)N1Cc2c(Nc3nc(N(C)C)ncc3F)n[nH]c2C1(C)C` [Example A2, N^4-(6,6-dimethyl-5-{[(2S)-2,4,5,5-tetramethylpiperazin-1-yl]carbonyl}-1,4,5,6-tetrahydropyrrolo[3,4-c]pyrazol-3-yl)-5-fluoro-N^2,N^2-dimethylpyrimidine-2,4-diamine], the Ki turned out to be 8.75 nM.

Turning to `CCOc1ncc(F)c(Nc2n[nH]c3c2CN(C(=O)C2CCN(CCC(F)(F)F)CC2)C3(C)C)n1` [Example L5, N-(2-ethoxy-5-fluoropyrimidin-4-yl)-6,6-dimethyl-5-{[1-(3,3,3-trifluoropropyl)piperidin-4-yl]carbonyl}-1,4,5,6-tetrahydropyrrolo[3,4-c]pyrazol-3-amine], the Ki was found to be 129 nM.

Consider `Cc1ccc(F)c(Nc2n[nH]c3c2CN(C(=O)N2C[C@]4(C)CCCN4C[C@@H]2C)C3(C)C)n1` [Example J4, 5-{[(3S,8aS)-3,8a-dimethylhexahydropyrrolo[1,2-a]pyrazin-2(1H)-yl]carbonyl}-N-(3-fluoro-6-methylpyridin-2-yl)-6,6-dimethyl-1,4,5,6-tetrahydropyrrolo[3,4-c]pyrazol-3-amine], for which the Ki stood at 8.64 nM.

For the molecule `Cc1ccc(F)c(Nc2n[nH]c3c2CN(C(=O)C2(F)CCN(C)CC2)C3(C)C)n1` [Example J1, 5-[(4-fluoro-1-methylpiperidin-4-yl)carbonyl]-N-(3-fluoro-6-methylpyridin-2-yl)-6,6-dimethyl-1,4,5,6-tetrahydropyrrolo[3,4-c]pyrazol-3-amine], the Ki came to 21.2 nM.

With `CCN1C[C@H](C)N(C(=O)N2Cc3c(Nc4nc(C)nc(C)c4F)n[nH]c3C2(C)C)C[C@H]1C` [AA3, 5-{[(2S,5R)-4-ethyl-2,5-dimethylpiperazin-1-yl]carbonyl}-N-(5-fluoro-2,6-dimethylpyrimidin-4-yl)-6,6-dimethyl-1,4,5,6-tetrahydropyrrolo[3,4-c]pyrazol-3-amine], the Ki turned out to be 14.8 nM.

For the molecule `COc1ccnc(Nc2n[nH]c3c2CN(C(=O)N2C[C@@H](C)N(C4CCOCC4)C[C@@H]2C)C3(C)C)n1` [Example J11, 5-{[(2S,5R)-2,5-dimethyl-4-(tetrahydro-2H-pyran-4-yl)piperazin-1-yl]carbonyl}-N-(4-methoxypyrimidin-2-yl)-6,6-dimethyl-1,4,5,6-tetrahydropyrrolo[3,4-c]pyrazol-3-amine], the Ki was under 10 nM.

For the molecule `CCNc1ncc(F)c(Nc2n[nH]c3c2CN(C(=O)N2C[C@@H]4CCCN4C[C@@H]2C)C3(C)C)n1` [Example B2, N^4-(6,6-dimethyl-5-{[(3S,8aS)-3-methylhexahydropyrrolo[1,2-a]pyrazin-2(1H)-yl]carbonyl}-1,4,5,6-tetrahydropyrrolo[3,4-c]pyrazol-3-yl)-N^2-ethyl-5-fluoropyrimidine-2,4-diamine], the Ki was determined as 24.5 nM.

For the origin of these results see patent publication US9518060B2, “Substituted pyrrolo[3,4-c]pyrazoles as PKC kinase inhibitors” (PFIZER INC., priority 2007, dated 2016).
